According to ChEMBL document CHEMBL5136974, “VHL-based PROTACs as potential therapeutic agents: Recent progress and perspectives” (Eur J Med Chem, 2022):

What was measured:
[1] = target: von Hippel-Lindau disease tumor suppressor/3-hydroxy-3-methylglutaryl-coenzyme A reductase (Homo sapiens, UniProt P04035+P40337); assay: Protac activity at VHL/HMGCR in Insig-silenced human HepG2 cells; assay type: cell-based
[2] = target: T1, von Hippel-Lindau disease tumor suppressor/Cyclin-dependent kinase 6 (Homo sapiens, UniProt Q00534+P40337); assay: Protac activity at VHL/CDK6 in human MM1.S cells assessed as degradation of CDK6 measured after 16 hrs; assay type: cell-based
[3] = target: von Hippel-Lindau disease tumor suppressor/Cyclin-dependent kinase 4 (Homo sapiens, UniProt P11802+P40337); assay: Protac activity at VHL/CDK4 in human MM1.S cells assessed as degradation of CDK4 measured after 16 hrs; assay type: cell-based
[4] = target: T1, von Hippel-Lindau disease tumor suppressor/Cyclin-dependent kinase 6; assay: Protac activity at VHL/CDK6 in human MM1.S cells assessed as degradation of CDK6 at 100 nM relative to control; assay type: cell-based
[5] = target: T2, von Hippel-Lindau disease tumor suppressor/Epidermal growth factor receptor (Homo sapiens, UniProt P00533+P40337); assay: Protac activity against VHL/EGFR in human OVCAR-8 cells assessed as degradation of EGFR; assay type: cell-based
[6] = target: T2, von Hippel-Lindau disease tumor suppressor/Epidermal growth factor receptor; assay: Protac activity against VHL/EGFR in human OVCAR-8 cells assessed as degradation of EGFR relative to control; assay type: cell-based
SK-BR-3 = assay: Antiproliferative activity against human SK-BR-3 cells; assay type: functional, cell-based
[7] = system: von Hippel-Lindau disease tumor suppressor/Epidermal growth factor receptor (Homo sapiens), P00533+P40337 [L858R,T790M]; assay: Protac activity against VHL/geftinib-resistant EGFR L858R/T790M double mutant in human H1975 cells relative to control; assay type: cell-based; conditions: NCI-H1975
[8] = target: T3, von Hippel-Lindau disease tumor suppressor/Androgen receptor (Homo sapiens, UniProt P10275+P40337); assay: Protac activity at VHL/androgen receptor (unknown origin) assessed as degradation of androgen receptor; assay type: protein assay
[9] = target: T3, von Hippel-Lindau disease tumor suppressor/Androgen receptor; assay: Protac activity at VHL/full length androgen receptor (unknown origin) assessed as degradation of androgen receptor
[10] = target: von Hippel-Lindau disease tumor suppressor/Oxysterols receptor LXR-beta (Homo sapiens, UniProt P40337+P55055); assay: Protac activity at VHL/LXR (unknown origin) by TR-FRET assay
[11] = target: von Hippel-Lindau disease tumor suppressor/Focal adhesion kinase 1 (Homo sapiens) (UniProt Q05397+P40337); assay: Protac activity at VHL/FAK in serum-free treated human PC-3 cells assessed as degradation of FAK measured after 24 hrs relative to control; assay type: cell-based
[12] = target: von Hippel-Lindau disease tumor suppressor/GTPase KRas (Homo sapiens, UniProt P01116+P40337, G12C); assay: Protac activity at VHL/KRAS G12C mutant (unknown origin); assay type: protein assay
[13] = Inhibition of BRAF mutant (unknown origin); parameters: species or system Homo sapiens
[14] = target: Serine/threonine-protein kinase B-raf (Homo sapiens) (UniProt P15056); assay: Inhibition of BRAF mutant (unknown origin) relative to control
[15] = target: T4, Receptor-interacting serine/threonine-protein kinase 2 (Homo sapiens, UniProt O43353); assay: Degradation of RIPK2 (unknown origin)
[16] = target: T4, Receptor-interacting serine/threonine-protein kinase 2; assay: Degradation of RIPK2 (unknown origin) at more than 10 nM relative to control
[17] = target: T5, von Hippel-Lindau disease tumor suppressor/Estrogen receptor (Homo sapiens, UniProt P03372+P40337); assay: Protac activity at VHL/ER (unknown origin) assessed as degradation of ER
Target sequence in this assay (P03372 whole entry): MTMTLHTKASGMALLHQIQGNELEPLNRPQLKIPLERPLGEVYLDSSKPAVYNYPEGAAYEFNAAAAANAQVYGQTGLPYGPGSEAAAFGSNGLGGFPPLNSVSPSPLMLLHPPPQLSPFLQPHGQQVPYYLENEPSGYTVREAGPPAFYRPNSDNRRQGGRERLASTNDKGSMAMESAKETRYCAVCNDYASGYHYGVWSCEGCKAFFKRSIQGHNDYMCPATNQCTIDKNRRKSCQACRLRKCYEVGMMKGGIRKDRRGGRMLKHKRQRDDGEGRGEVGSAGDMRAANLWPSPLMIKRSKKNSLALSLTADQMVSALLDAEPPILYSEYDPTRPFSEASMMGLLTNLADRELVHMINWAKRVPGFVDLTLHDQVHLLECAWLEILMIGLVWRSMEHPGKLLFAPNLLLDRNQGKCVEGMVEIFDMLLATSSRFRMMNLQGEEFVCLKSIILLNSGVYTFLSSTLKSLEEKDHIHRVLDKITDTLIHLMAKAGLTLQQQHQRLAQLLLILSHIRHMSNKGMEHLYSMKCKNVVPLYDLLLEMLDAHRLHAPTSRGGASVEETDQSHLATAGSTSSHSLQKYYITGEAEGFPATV
Target sequence in this assay (P40337 whole entry): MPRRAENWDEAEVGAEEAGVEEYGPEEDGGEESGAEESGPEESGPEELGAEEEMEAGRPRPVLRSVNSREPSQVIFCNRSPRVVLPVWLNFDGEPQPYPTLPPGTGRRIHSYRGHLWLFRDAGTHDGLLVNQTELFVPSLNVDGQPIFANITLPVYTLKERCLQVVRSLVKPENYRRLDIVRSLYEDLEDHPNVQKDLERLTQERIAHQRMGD

[18] = target: T5, von Hippel-Lindau disease tumor suppressor/Estrogen receptor; assay: Protac activity at VHL/ER (unknown origin) assessed as degradation of ER relative to control
Target sequence in this assay (P03372 whole entry, looked up): as the sequence (P03372 whole entry) above
Target sequence in this assay (P40337 whole entry, looked up): as the sequence (P40337 whole entry) above

[19] = target: T2, von Hippel-Lindau disease tumor suppressor/Epidermal growth factor receptor; assay: Protac activity against VHL/EGFR deletion 19 mutant in human HCC827 cells; assay type: cell-based
[20] = system: von Hippel-Lindau disease tumor suppressor/Epidermal growth factor receptor (Homo sapiens), P00533+P40337 [UNDEFINED MUTATION]; assay: Protac activity against VHL/EGFR deletion 19 mutant in human HCC827 cells relative to control; assay type: cell-based
[21] = target: von Hippel-Lindau disease tumor suppressor/Epidermal growth factor receptor (Homo sapiens, UniProt P00533+P40337, L858R); assay: Protac activity against VHL/EGFR L858R mutant in human […] cells; assay type: cell-based
[22] = system: von Hippel-Lindau disease tumor suppressor/Epidermal growth factor receptor (Homo sapiens), P00533+P40337 [L858R]; assay: Protac activity against VHL/EGFR L858R mutant in human […] cells relative to control; assay type: cell-based
Polycomb protein EED = Polycomb protein EED (Homo sapiens, UniProt O75530); assay: Binding affinity to EED (unknown origin) assessed as dissociation constant
[23] = Inhibition of PRC2 (unknown origin); parameters: species or system Homo sapiens
MV4-11 = assay: Antiproliferative activity against human MV4-11 cells; assay type: functional, cell-based
MOLM-14 = assay: Antiproliferative activity against human MOLM-14 cells; assay type: functional, cell-based
[24] = target: Dihydroorotate dehydrogenase (quinone), mitochondrial (Homo sapiens, UniProt Q02127); assay: Inhibition of DHODH (unknown origin)
HT-29 = assay: Antiproliferative activity against human HT-29 cells; assay type: functional, cell-based
SK-MEL-28 = assay: Antiproliferative activity against human SK-MEL-28 cells; assay type: functional, cell-based
[25] = target: T6, von Hippel-Lindau disease tumor suppressor/Serine/threonine-protein kinase Sgk3 (Homo sapiens) (UniProt Q96BR1+P40337); assay: Protac activity at VHL/SGK3 in human HEK293 cells at […] measured within 2 hrs relative to control; assay type: cell-based
[26] = target: T6, von Hippel-Lindau disease tumor suppressor/Serine/threonine-protein kinase Sgk3 (Homo sapiens); assay: Protac activity at VHL/SGK3 in human HEK293 cells at […] measured within 8 hrs relative to control; assay type: cell-based
MCF7 [27] = assay: Antiproliferative activity against human MCF7 cells; assay type: functional, cell-based
MCF7 [28] = assay: Antiproliferative activity against human MCF7 cells relative to control; assay type: functional
[29] = target: ALK tyrosine kinase receptor (Homo sapiens, UniProt Q9UM73); assay: Inhibition of ALK (unknown origin) incubated for 1 hr by HTRF assay
[30] = target: NPM/ALK (Nucleophosmin/ALK tyrosine kinase receptor) (Homo sapiens) (UniProt Q9UM73+P06748); assay: Inhibition of NPM-ALK in human SU-DHL-1 cells at […] relative to control; assay type: cell-based

T3 sequence (P10275 whole entry): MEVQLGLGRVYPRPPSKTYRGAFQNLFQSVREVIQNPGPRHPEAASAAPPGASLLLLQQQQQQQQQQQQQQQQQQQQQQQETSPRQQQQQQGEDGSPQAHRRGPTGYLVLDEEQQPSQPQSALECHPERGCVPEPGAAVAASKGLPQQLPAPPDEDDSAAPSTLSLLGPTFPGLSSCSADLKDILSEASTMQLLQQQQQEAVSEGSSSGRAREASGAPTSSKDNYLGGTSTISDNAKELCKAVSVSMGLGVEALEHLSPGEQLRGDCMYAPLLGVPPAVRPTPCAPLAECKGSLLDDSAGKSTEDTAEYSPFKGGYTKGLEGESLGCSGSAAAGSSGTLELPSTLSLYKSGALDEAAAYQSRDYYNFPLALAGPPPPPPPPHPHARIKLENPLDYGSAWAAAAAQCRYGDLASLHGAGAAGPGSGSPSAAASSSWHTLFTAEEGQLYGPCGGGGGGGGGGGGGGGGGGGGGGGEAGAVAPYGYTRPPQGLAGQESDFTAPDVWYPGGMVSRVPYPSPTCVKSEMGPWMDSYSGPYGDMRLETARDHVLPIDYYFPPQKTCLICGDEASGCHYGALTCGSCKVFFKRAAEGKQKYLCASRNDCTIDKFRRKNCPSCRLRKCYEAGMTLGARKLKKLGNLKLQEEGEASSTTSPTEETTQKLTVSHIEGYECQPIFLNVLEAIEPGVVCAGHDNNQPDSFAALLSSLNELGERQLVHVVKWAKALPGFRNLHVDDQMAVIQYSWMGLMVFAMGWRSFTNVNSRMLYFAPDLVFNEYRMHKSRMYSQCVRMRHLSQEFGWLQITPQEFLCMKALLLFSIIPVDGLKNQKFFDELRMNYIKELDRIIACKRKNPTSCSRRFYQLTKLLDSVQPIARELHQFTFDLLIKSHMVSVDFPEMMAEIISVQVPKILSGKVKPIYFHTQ
T3 sequence (P40337 whole entry): as the sequence (P40337 whole entry) above
T6 sequence (P40337 whole entry, looked up): as the sequence (P40337 whole entry) above
T6 sequence (Q96BR1 whole entry, looked up): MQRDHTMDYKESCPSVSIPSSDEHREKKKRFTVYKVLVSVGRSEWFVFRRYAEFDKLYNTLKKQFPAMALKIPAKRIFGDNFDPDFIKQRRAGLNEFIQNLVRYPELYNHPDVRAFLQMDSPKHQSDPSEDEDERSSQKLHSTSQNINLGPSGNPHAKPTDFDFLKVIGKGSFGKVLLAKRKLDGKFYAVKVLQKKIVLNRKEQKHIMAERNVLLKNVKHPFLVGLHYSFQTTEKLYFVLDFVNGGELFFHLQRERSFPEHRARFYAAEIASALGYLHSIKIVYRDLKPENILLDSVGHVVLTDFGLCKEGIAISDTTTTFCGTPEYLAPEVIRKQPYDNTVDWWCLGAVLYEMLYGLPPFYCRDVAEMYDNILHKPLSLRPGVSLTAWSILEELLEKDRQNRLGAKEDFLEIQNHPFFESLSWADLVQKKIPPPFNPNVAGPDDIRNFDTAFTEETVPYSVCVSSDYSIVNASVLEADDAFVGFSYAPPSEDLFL
Sequence of von Hippel-Lindau disease tumor suppressor/Oxysterols receptor LXR-beta (P55055 whole entry): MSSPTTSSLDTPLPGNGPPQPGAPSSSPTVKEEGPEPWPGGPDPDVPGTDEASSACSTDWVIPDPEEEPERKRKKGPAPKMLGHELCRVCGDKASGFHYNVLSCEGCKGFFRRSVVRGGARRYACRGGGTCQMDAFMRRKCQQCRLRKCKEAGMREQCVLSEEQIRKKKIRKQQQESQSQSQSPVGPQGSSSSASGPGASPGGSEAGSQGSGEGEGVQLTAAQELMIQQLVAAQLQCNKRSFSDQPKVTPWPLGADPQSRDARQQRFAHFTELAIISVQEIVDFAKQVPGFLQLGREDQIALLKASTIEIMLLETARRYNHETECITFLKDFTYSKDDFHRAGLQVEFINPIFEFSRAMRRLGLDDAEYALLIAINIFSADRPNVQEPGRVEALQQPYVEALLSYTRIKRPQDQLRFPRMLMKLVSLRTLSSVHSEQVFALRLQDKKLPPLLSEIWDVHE
Sequence of von Hippel-Lindau disease tumor suppressor/Oxysterols receptor LXR-beta (P40337 whole entry): as the sequence (P40337 whole entry) above
Sequence of Dihydroorotate dehydrogenase (quinone), mitochondrial (Q02127 whole entry): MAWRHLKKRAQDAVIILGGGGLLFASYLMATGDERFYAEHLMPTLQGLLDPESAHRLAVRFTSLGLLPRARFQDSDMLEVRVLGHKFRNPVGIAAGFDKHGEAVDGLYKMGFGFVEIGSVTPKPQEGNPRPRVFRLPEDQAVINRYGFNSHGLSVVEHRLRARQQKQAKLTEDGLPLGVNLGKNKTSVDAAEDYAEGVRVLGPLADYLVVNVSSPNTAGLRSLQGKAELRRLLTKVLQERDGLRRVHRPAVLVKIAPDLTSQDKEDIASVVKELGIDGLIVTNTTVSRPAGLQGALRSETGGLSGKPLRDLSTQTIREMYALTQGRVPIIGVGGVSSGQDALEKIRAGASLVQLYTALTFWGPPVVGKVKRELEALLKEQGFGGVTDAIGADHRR

Compound: Cc1ncsc1-c1ccc(CNC(=O)[C@@H]2C[C@@H](O)CN2C(=O)[C@@H](NC(=O)CCCCCCCCCCNC(=O)O[C@H]2C[C@@H](C)C=C3C=C[C@H](C)[C@H](CC[C@@H](O)C[C@@H](O)CC(=O)O)[C@H]32)C(C)(C)C)cc1
- DC50 [1]: 120 nM

Compound: CC(=O)c1c(C)c2cnc(Nc3ccc(N4CCN(CCOCCOCCOc5cc(-c6scnc6C)ccc5CNC(=O)[C@@H]5C[C@@H](O)CN5C(=O)[C@@H](NC(=O)C5(F)CC5)C(C)(C)C)CC4)cn3)nc2n(C2CCCC2)c1=O
- DC50 [2]: 5.1 nM
- DC50 [3]: 20 nM
- Activity [4]: > 95%

Compound: Cc1ncsc1-c1ccc(CNC(=O)[C@@H]2C[C@@H](O)CN2C(=O)[C@@H](NC(=O)COCCOCCOc2ccc(-c3ccc4ncnc(Nc5ccc(OCc6cccc(F)c6)c(Cl)c5)c4c3)cc2)C(C)(C)C)cc1
- DC50 [5]: 39.2 nM
- Emax [6]: 97.6%
- IC50 (SK-BR-3): 102 nM

Compound: Cc1ncsc1-c1ccc(CNC(=O)[C@@H]2C[C@@H](O)CN2C(=O)[C@@H](NC(=O)CCCCCOCCCCOCCCCOc2cc3ncnc(Nc4ccc(F)c(Cl)c4)c3cc2NC(=O)/C=C/CN(C)C)C(C)(C)C)cc1
- Emax [7]: 79.1%

Compound: Cc1ncsc1-c1ccc([C@H](C)NC(=O)[C@@H]2C[C@@H](O)CN2C(=O)[C@@H](NC(=O)CCCCCNC(=O)COc2ccccc2-c2csc(N3CCOCC3)n2)C(C)(C)C)cc1
- DC50 [8]: 370 nM
- DC50 [9]: 2000 nM

Compound: Cc1ncsc1-c1ccc(CNC(=O)[C@@H]2C[C@@H](O)CN2C(=O)[C@@H](NC(=O)COCCOCCOCCOCCOCCNC(=O)Cc2cccc(OCCCN(Cc3cccc(C(F)(F)F)c3Cl)CC(c3ccccc3)c3ccccc3)c2)C(C)(C)C)cc1
- EC50 [10]: 31 nM

Compound: O=C(O)Cc1cccc(OCCCN(Cc2cccc(C(F)(F)F)c2Cl)CC(c2ccccc2)c2ccccc2)c1
- EC50 [10]: 20 nM

Compound: Cc1ncsc1-c1ccc(CNC(=O)[C@@H]2C[C@@H](O)CN2C(=O)[C@@H](NC(=O)CCOCCOc2ccc(Nc3ncc(C(F)(F)F)c(NCc4cccc(N(C)S(C)(=O)=O)c4)n3)cc2)C(C)(C)C)cc1
- Emax [11]: 99%

Compound: C=C(F)C(=O)N1CCN(c2nc(OC[C@@H]3CCCN3CCCOCCC(=O)N[C@H](C(=O)N3C[C@H](O)C[C@H]3C(=O)NCc3ccc(-c4scnc4C)cc3)C(C)(C)C)nc3c2CCN(c2cccc4cccc(Cl)c24)C3)C[C@@H]1CC#N
- DC50 [12]: 250 nM

Compound: CCCS(=O)(=O)Nc1ccc(F)c(C(=O)c2c[nH]c3ncc(-c4ccc(N5CCN(CC(=O)N[C@H](C(=O)N6C[C@H](O)C[C@H]6C(=O)NCc6ccc(-c7scnc7C)cc6)C(C)(C)C)CC5)cc4)cc23)c1F
- IC50 [13]: 6.8 nM
- Emax [14]: > 95%

Compound: Cc1ncsc1-c1ccc(CNC(=O)[C@@H]2C[C@@H](O)CN2C(=O)[C@@H](NC(=O)COCCOCCOCCOCCOc2cc3nccc(Nc4ccc5scnc5c4)c3cc2S(=O)(=O)C(C)(C)C)C(C)(C)C)cc1
- DC50 [15]: 1.4 nM
- Emax [16]: > 95%

Compound: Cc1ncsc1-c1ccc([C@H](C)NC(=O)[C@@H]2C[C@@H](O)CN2C(=O)[C@@H](NC(=O)CCCCOc2ccc(/C=N/NC(=O)c3ccc(C(=O)c4c(-c5ccc(O)cc5)sc5cc(O)ccc45)cc3)cc2)C(C)(C)C)cc1 (stereo in doubt)
- DC50 [17]: 10 nM
- Emax [18]: 95%

Compound: COc1cc2ncnc(Nc3ccc(F)c(Cl)c3)c2cc1OCCCCCOCCOCCC(=O)N[C@H](C(=O)N1C[C@H](O)C[C@H]1C(=O)NCc1ccc(-c2scnc2C)cc1)C(C)(C)C
- DC50 [19]: 11.7 nM
- Emax [20]: 98.9%
- DC50 [21]: 22.3 nM
- Emax [22]: 96.6%

Compound: Cc1nc(CCC(=O)NCCCCC(=O)N[C@H](C(=O)N2C[C@H](O)C[C@H]2C(=O)NCc2ccc(-c3scnc3C)cc2)C(C)(C)C)ccc1-c1cnc(NCc2c(F)ccc3c2CCO3)n2cnnc12
- Kd (Polycomb protein EED): 1 nM
- pIC50 [23]: 8.1

Compound: Cc1ncsc1-c1ccc(CNC(=O)[C@@H]2C[C@@H](O)CN2C(=O)[C@@H](NC(=O)CCOCCOCCOc2ccc3c(c2)sc2nc(-c4ccc(NC(=O)Nc5cc(C(C)(C)C)on5)cc4)cn23)C(C)(C)C)cc1
- IC50 (MV4-11): 0.6 nM
- IC50 (MOLM-14): 0.6 nM

Compound: COC(=O)c1c(C)c(-c2ccc(-c3ccc(OCCOCCOCCOC(=O)N[C@H](C(=O)N4C[C@H](O)C[C@H]4C(=O)NCc4ccc(-c5scnc5C)cc4)C(C)(C)C)cc3)cc2)nc2ccc(F)cc12
- IC50 [24]: > 200000 nM

Compound: Cc1ncsc1-c1ccc([C@H](C)NC(=O)[C@@H]2C[C@@H](OC(=O)CCCCn3cc(CNC(=O)CC[C@H](NC(=O)c4ccc(NCc5cnc6nc(N)[nH]c(=O)c6n5)cc4)C(=O)O)nn3)CN2C(=O)[C@@H](NC(=O)CCCCCCCCCCNCCCONC(=O)c2ccc(F)c(F)c2Nc2ccc(I)cc2F)C(C)(C)C)cc1
- IC50 (HT-29): 436 nM
- IC50 (SK-MEL-28): 390 nM

Compound: Cc1ncsc1-c1ccc(CNC(=O)[C@@H]2C[C@@H](O)CN2C(=O)[C@@H](NC(=O)OCCOCCOCCOc2ccc(-c3ccc(-c4nc5ccc(F)cc5c(C(=O)O)c4C)cc3)cc2)C(C)(C)C)cc1
- IC50 [24]: 93 nM

Compound: Cc1nc(CCC(=O)NCCOc2ccc(OCC(=O)N[C@H](C(=O)N3C[C@H](O)C[C@H]3C(=O)NCc3ccc(-c4scnc4C)cc3)C(C)(C)C)cc2)ccc1-c1cnc(NCc2c(F)ccc3c2CCO3)n2cnnc12
- Kd (Polycomb protein EED): 1 nM
- pIC50 [23]: 8.1

Compound: Cc1ccc(F)c(S(=O)(=O)Nc2ccc(-c3nc(OC[C@H]4CN(CCCCCCOCCOCCOCC(=O)N[C@H](C(=O)N5C[C@H](O)C[C@H]5C(=O)NCc5ccc(-c6scnc6C)cc5)C(C)(C)C)CCO4)c4cn[nH]c4n3)cc2)c1
- Activity [25]: 50%
- Activity [26]: 80%

Compound: Cc1ncsc1-c1ccc([C@H](C)NC(=O)[C@@H]2C[C@@H](O)CN2C(=O)[C@@H](NC(=O)CCCCOc2ccc(CCNC(=O)c3ccc(C(=O)c4c(-c5ccc(O)cc5)sc5cc(O)ccc45)cc3)cc2)C(C)(C)C)cc1
- DC50 [17]: 1.1 nM
- Emax [18]: 98%
- IC50 (MCF7 [27]): 13.2 nM
- Imax (MCF7 [28]): 69%

Compound: Cc1cc(Nc2ncc(Cl)c(Nc3ccccc3S(=O)(=O)C(C)C)n2)c(OC(C)C)cc1C1CCN(C(=O)CCCC(=O)N[C@H](C(=O)N2C[C@H](O)C[C@H]2C(=O)NCc2ccc(-c3scnc3C)cc2)C(C)(C)C)CC1
- IC50 [29]: 7 nM
- inhibition [30]: 90%
